pEC50: −log10 of the molar value.
target: human APJ receptor (Homo sapiens (Human), UniProt P35414); assay: biochemical; assay type: biochemical; conditions: [35S]GTPγS binding, CHO membranes expressing human APJ receptor; read-out: Activity hAPJ SPA EC50 IP
Summary of the method: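 GTPγS binding on membranes from CHO cells stably expressing FLAG-tagged human APJ, with optimized GDP, MgCl2 and NaCl; incubated 90 min at RT before imaging read-out.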

human APJ receptor, sequence (P35414 whole entry): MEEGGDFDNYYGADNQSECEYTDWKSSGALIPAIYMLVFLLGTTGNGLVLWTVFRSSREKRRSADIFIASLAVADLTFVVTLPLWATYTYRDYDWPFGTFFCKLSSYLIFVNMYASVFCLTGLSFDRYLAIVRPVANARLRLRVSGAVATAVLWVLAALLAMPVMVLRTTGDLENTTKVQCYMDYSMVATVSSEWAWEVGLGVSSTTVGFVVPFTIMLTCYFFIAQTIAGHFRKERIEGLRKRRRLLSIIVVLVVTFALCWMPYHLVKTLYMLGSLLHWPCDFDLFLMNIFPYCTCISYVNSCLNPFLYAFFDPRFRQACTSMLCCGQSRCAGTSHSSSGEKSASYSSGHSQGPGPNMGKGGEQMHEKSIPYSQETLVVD

Row | Compound | pEC50
1 | COC[C@H](C)n1c(NS(=O)(=O)[C@@H](C)[C@H](C)c2ncc(Cl)cn2)nnc1-c1ccn(C)n1 [Example 533.0, (2S,3R)-3-(5-chloro-2-pyrimidinyl)-N-(4-((2S)-1-methoxy-2-propanyl)-5-(1-methyl-1H-pyrazol-3-yl)-4H-1,2,4-triazol-3-yl)-2-butanesulfonamide] | 6.96
2 | COc1cccc(OC)c1-n1c(NS(=O)(=O)[C@@H](C)[C@H](OC)c2ncc(C)cn2)nnc1-c1nccs1 [Example 341.0, (1R,2S)-N-(4-(2,6-dimethoxyphenyl)-5-(1,3-thiazol-2-yl)-4H-1,2,4-triazol-3-yl)-1-methoxy-1-(5-methyl-2-pyrimidinyl)-2-propanesulfonamide] | 9.14
3 | COc1cccc(OC)c1-n1c(NS(=O)(=O)CCc2ccc(F)cc2C#N)nnc1-c1csc(C)n1 [Example 148.0, 2-(2-cyano-4-fluorophenyl)-N-(4-(2,6-dimethoxyphenyl)-5-(2-methylthiazol-4-yl)-4H-1,2,4-triazol-3-yl)ethanesulfonamide] | 7.51
4 | CCO[C@@H](c1ncc(Cl)cn1)[C@@H](C)S(=O)(=O)Nc1nnc(-c2ccn(C)n2)n1-c1c(OC)cccc1OC (single isomer, unassigned) [Example 354.0, (1S,2R)-1-(5-chloropyrimidin-2-yl)-N-(4-(2,6-dimethoxyphenyl)-5-(1-methyl-1H-pyrazol-3-yl)-4H-1,2,4-triazol-3-yl)-1-ethoxypropane-2-sulfonamide or (1R,25)-1-(5-chloropyrimidin-2-yl)-N-(4-(2,6-dimethoxyphenyl)-5-(1-methyl-1H-pyrazol-3-yl)-4H-1,2,4-triazol-3-yl)-1-ethoxypropane-2-sulfonamide] | 9.12
5 | (1R,2S)-N-(4-(2,6-dimethoxyphenyl)-5-(1-methyl-1H-pyrazol-3-yl)-4H-1,2,4-triazol-3-yl)-1-methoxy-1-(5-methoxy-2-pyrazinyl)-2-propanesulfonamide and (1S,2R)-N-(4-(2,6-dimethoxyphenyl)-5-(1-methyl-1H-pyrazol-3-yl)-4H-1,2,4-triazol-3-yl)-1-methoxy-1-(5-methoxy-2-pyrazinyl)-2-propanesulfonamide [Example 307.0] | 9.00
6 | COc1cccc(OC)c1-n1c(NS(=O)(=O)CCc2ccc(F)cc2C#N)nnc1-c1nc(C)cs1 [Example 147.0, 2-(2-Cyano-4-fluorophenyl)-N-(4-(2,6-dimethoxyphenyl)-5-(4-methylthiazol-2-yl)-4H-1,2,4-triazol-3-yl)ethanesulfonamide] | 8.89
7 | COc1cccc(OC)c1-n1c(NS(=O)(=O)CCc2ccc(Cl)cc2)nnc1-c1nccs1 [Example 136.0, 2-(4-chlorophenyl)-N-(4-(2,6-dimethoxyphenyl)-5-(thiazol-2-yl)-4H-1,2,4-triazol-3-yl)ethanesulfonamide] | 7.46
8 | COc1cccc(OC)c1-n1c(NS(=O)(=O)[C@@H](C)[C@H](OC)c2ncc(Cl)cn2)nnc1-c1c[nH]cn1 [Example 523.0, (1R,2S)-1-(5-chloropyrimidin-2-yl)-N-(4-(2,6-dimethoxyphenyl)-5-(1H-imidazol-4-yl)-4H-1,2,4-triazol-3-yl)-1-methoxypropane-2-sulfonamide] | 8.49
9 | COc1cccc(OC)c1-n1c(NS(=O)(=O)[C@@H](C)[C@H](OC)c2ncc(C)cn2)nnc1-c1cc2n(n1)CCC2 [Example 205.0, (1R,2S)-N-(5-(5,6-dihydro-4H-pyrrolo[1,2-b]pyrazol-2-yl)-4-(2,6-dimethoxyphenyl)-4H-1,2,4-triazol-3-yl)-1-methoxy-1-(5-methyl-2-pyrimidinyl)-2-propanesulfonamide] | 8.52
10 | COc1cccc(OC)c1-n1c(NS(=O)(=O)[C@@H]2C[C@H](O)CN(c3ncc(F)cn3)C2)nnc1-c1nc(C)cs1 (single isomer, unassigned) [Example 254.0, (3R,5S)-N-(4-(2,6-dimethoxyphenyl)-5-(4-methyl-1,3-thiazol-2-yl)-4H-1,2,4-triazol-3-yl)-1-(5-fluoro-2-pyrimidinyl)-5-hydroxy-3-piperidinesulfonamide or (3S,5R)-N-(4-(2,6-dimethoxyphenyl)-5-(4-methyl-1,3-thiazol-2-yl)-4H-1,2,4-triazol-3-yl)-1-(5-fluoro-2-pyrimidinyl)-5-hydroxy-3-piperidinesulfonamide] | 8.92
11 | COc1cccc(OC)c1-n1c(NS(=O)(=O)[C@@H](C)[C@H](OC)c2ncc(Cl)cn2)nnc1-c1ccn(C(F)F)n1 [Example 207.0, (1R,2S)-1-(5-chloro-2-pyrimidinyl)-N-(5-(1-(difluoromethyl)-1H-pyrazol-3-yl)-4-(2,6-dimethoxyphenyl)-4H-1,2,4-triazol-3-yl)-1-methoxy-2-propanesulfonamide] | 9.89
12 | COc1cccc(OC)c1-n1c(NS(=O)(=O)[C@@H](C)[C@H](O)c2cn3ccccc3n2)nnc1-c1ccn(C)n1 (single isomer, unassigned) [Example 350.0, (1R,2S)-N-(4-(2,6-Dimethoxyphenyl)-5-(1-methyl-1H-pyrazol-3-yl)-4H-1,2,4-triazol-3-yl)-1-hydroxy-1-imidazo[1,2-a]pyridin-2-yl-2-propanesulfonamide or (1S,2R)-N-(4-(2,6-dimethoxyphenyl)-5-(1-methyl-1H-pyrazol-3-yl)-4H-1,2,4-triazol-3-yl)-1-hydroxy-1-imidazo[1,2-a]pyridin-2-yl-2-propanesulfonamide] | 8.21
13 | COc1cccc(OC)c1-n1c(NS(=O)(=O)[C@@H](C)[C@H](OC)c2ncc(C)cn2)nnc1-c1ccnc2ccccc12 [Example 417.0] | 6.29
14 | COc1cccc(OC)c1-n1c(NS(=O)(=O)[C@@H](C)[C@H](OC)c2ncc(C)cn2)nnc1-c1csc(C)n1 [Example 338.0, (1R,2S)-N-(4-(2,6-dimethoxyphenyl)-5-(2-methyl-1,3-thiazol-4-yl)-4H-1,2,4-triazol-3-yl)-1-methoxy-1-(5-methyl-2-pyrimidinyl)-2-propanesulfonamide] | 9.47
15 | COc1cccc(OC)c1-n1c(NS(=O)(=O)C[C@@H](O)c2ccc(F)cc2F)nnc1-c1ccn(C)n1 (racemic) [Example 116.0, (S)-2-(2,4-difluorophenyl)-N-(4-(2,6-dimethoxyphenyl)-5-(1-methyl-1H-pyrazol-3-yl)-4H-1,2,4-triazol-3-yl)-2-hydroxyethanesulfonamide and (R)-2-(2,4-difluorophenyl)-N-(4-(2,6-dimethoxyphenyl)-5-(1-methyl-1H-pyrazol-3-yl)-4H-1,2,4-triazol-3-yl)-2-hydroxyethanesulfonamide] | 8.59
16 | COc1cccc(OC)c1-n1c(NS(=O)(=O)[C@H](C)Cc2ccc(C#N)cn2)nnc1-c1nc(C)cs1 (single isomer, unassigned) [Example 12.0, (2R)-1-(5-Cyano-2-pyridinyl)-N-(4-(2,6-dimethoxyphenyl)-5-(4-methyl-1,3-thiazol-2-yl)-4H-1,2,4-triazol-3-yl)-2-propanesulfonamide or (2S)-1-(5-cyano-2-pyridinyl)-N-(4-(2,6-dimethoxyphenyl)-5-(4-methyl-1,3-thiazol-2-yl)-4H-1,2,4-triazol-3-yl)-2-propanesulfonamide] | 8.03
17 | COc1cccc(OC)c1-n1c(NS(=O)(=O)CC[C@@H](O)C2CCCC2)nnc1-c1nc(C)cs1 (mixture of isomers) [Example 98.0, (R)-3-Cyclopentyl-N-(4-(2,6-dimethoxyphenyl)-5-(4-methylthiazol-2-yl)-4H-1,2,4-triazol-3-yl)-3-hydroxypropane-1-sulfonamide and (S)-3-cyclopentyl-N-(4-(2,6-dimethoxyphenyl)-5-(4-methylthiazol-2-yl)-4H-1,2,4-triazol-3-yl)-3-hydroxypropane-1-sulfonamide] | 8.28
18 | COc1cccc(OC)c1-n1c(NS(=O)(=O)[C@H](C)[C@H](O)c2ncc(C)cn2)nnc1-c1nc(C)cs1 (single isomer, unassigned) [Example 315.0, (1R,2R)-N-(4-(2,6-dimethoxyphenyl)-5-(4-methylthiazol-2-yl)-4H-1,2,4-triazol-3-yl)-1-hydroxy-1-(5-methylpyrimidin-2-yl)propane-2-sulfonamide or (1S,2S)-N-(4-(2,6-dimethoxyphenyl)-5-(4-methylthiazol-2-yl)-4H-1,2,4-triazol-3-yl)-1-hydroxy-1-(5-methylpyrimidin-2-yl)propane-2-sulfonamide] | 9.17
19 | COc1cccc(OC)c1-n1c(NS(=O)(=O)C[C@H](OC)c2ccc(F)cc2S(C)(=O)=O)nnc1-c1ccn(C)n1 (single isomer, unassigned) [Example 373.0, (R)-N-(4-(2,6-Dimethoxyphenyl)-5-(1-methyl-1H-pyrazol-3-yl)-4H-1,2,4-triazol-3-yl)-2-(4-fluoro-2-(methylsulfonyl)phenyl)-2-methoxyethanesulfonamide or (S)-N-(4-(2,6-dimethoxyphenyl)-5-(1-methyl-1H-pyrazol-3-yl)-4H-1,2,4-triazol-3-yl)-2-(4-fluoro-2-(methylsulfonyl)phenyl)-2-methoxyethanesulfonamide] | 8.89
20 | COc1cccc(OC)c1-n1c(NS(=O)(=O)CCc2ccc(Cl)cc2)nnc1-c1cc(C)on1 [Example 145.0, 2-(4-chlorophenyl)-N-(4-(2,6-dimethoxyphenyl)-5-(5-methylisoxazol-3-yl)-4H-1,2,4-triazol-3-yl)ethanesulfonamide] | 7.15
21 | COc1cccc(OC)c1-n1c(NS(=O)(=O)[C@@H](C)[C@H](OC)c2ncc(C)cn2)nnc1-c1noc(C)c1C [Example 516.0] | 7.74
22 | O=S(=O)(CCc1ccccc1)Nc1nnc(-c2ccc(F)s2)n1-c1ccccc1OC(F)F [Example 246.0, N-(4-(2-(difluoromethoxy)phenyl)-5-(5-fluoro-2-thiophenyl)-4H-1,2,4-triazol-3-yl)-2-phenylethanesulfonamide] | 7.41
23 | COc1ccc(N2CCCC2=O)cc1-n1c(NS(=O)(=O)CCc2ccc(Cl)cc2)nnc1-c1cccs1 [Example 125.0, 2-(4-Chlorophenyl)-N-(4-(2-methoxy-5-(2-oxo-1-pyrrolidinyl)phenyl)-5-(2-thiophenyl)-4H-1,2,4-triazol-3-yl)ethanesulfonamide] | 7.62
